Laboratory results published in ChEMBL document CHEMBL5728847, “Cyanoindoline derivatives as NIK inhibitors” (2021).

Each molecule was assayed against Mitogen-activated protein kinase kinase kinase 14 (Homo sapiens, UniProt Q99558) (assay: Inhibition of Auto-Phosphorylation of Recombinant Human NF-kappaB-Inducing Kinase (NIK1/AP3K14) Activity: NIK/MAP3K14 auto-phosphorylation activity was measured using the AlphaScreen® (αscreen) format (Perkin Elmer). All compounds tested were dissolved in dimethyl sulfoxide (DMSO) and further dilutions were made in assay buffer. Final DMSO concentration was […] in assays. Assay buffer was 50 mM Tris pH 7.5 containing 1 mM EGTA (ethylene glycol tetraacetic acid), 1 mM DTT (dithiothreitol), 0.1 mM Na3VO4, 5 mM MgCl2, 0.01% Tween® 20. Assays were carried out in 384 well Alphaplates (Perkin Elmer). Incubations consisted of compound, 25 microM Adenosine-5′-triphosphate (ATP), and 0.2 nM NIK/MAP3K14. Incubations were initiated by addition of GST-tagged NIK/MAP3K14 enzyme, carried out for 1 h at 25° C. and terminated by addition of stop buffer containing anti-phospho-[…] Ser176/180 antibody. Protein A Acceptor and Glutathione-Donor beads were added before reading using an EnVision® Multilabel Plate Reader (Perkin Elmer). Signal obtained in the wells containing blank samples was subtracted from all other wells and IC50's were determined by fitting a sigmoidal curve to % inhibition of control versus Log10 compound concentration.).
Sequence of Mitogen-activated protein kinase kinase kinase 14 (Q99558 whole entry): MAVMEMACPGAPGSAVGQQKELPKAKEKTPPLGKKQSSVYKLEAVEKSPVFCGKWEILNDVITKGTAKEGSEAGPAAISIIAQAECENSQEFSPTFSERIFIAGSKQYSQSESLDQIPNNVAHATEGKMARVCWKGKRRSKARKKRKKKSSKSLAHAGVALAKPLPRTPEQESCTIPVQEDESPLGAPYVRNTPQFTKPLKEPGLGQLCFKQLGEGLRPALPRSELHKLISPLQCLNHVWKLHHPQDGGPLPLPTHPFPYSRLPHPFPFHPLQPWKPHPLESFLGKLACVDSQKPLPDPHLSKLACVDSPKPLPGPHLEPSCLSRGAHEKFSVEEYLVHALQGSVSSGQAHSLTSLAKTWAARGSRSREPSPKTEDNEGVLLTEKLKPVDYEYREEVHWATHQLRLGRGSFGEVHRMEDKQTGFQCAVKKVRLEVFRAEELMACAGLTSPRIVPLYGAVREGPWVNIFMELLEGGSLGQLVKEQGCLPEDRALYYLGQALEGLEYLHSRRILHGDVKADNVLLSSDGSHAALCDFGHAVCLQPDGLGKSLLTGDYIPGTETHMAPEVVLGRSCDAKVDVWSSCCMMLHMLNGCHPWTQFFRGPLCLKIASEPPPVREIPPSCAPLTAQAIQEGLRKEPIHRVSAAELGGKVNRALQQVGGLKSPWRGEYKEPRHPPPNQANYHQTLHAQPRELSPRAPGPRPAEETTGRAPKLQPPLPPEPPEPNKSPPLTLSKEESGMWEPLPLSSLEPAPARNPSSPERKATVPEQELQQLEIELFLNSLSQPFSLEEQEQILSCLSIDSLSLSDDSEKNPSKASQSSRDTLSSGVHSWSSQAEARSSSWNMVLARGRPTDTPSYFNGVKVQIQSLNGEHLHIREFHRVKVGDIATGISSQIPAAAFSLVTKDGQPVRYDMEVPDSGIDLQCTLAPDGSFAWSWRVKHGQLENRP

SMILES	IC50 [nM]
CN1CCc2ncc(Nc3ncc(F)c(-c4cc(C#N)c5c(c4)[C@@](C)(CO)CN5)n3)cc2C1	4.2
CC1(C)CNc2c(C#N)cc(-c3ccnc(Nc4cc(Cl)cc5[nH]ccc45)n3)cc21	148
COc1nc2c(cc1Nc1nccc(-c3cc(C#N)c4c(c3)[C@@](C)(CO)CN4)n1)CCN(C)C2	1.8
